Reference: PubChem BioAssay AID248 (DTP/NCI, 2004)
Values joined by “and” are separate entries in the source; they are usually repeats but may differ in a detail not shown here. Identical values can stand only once. Inconclusive results and toxic doses are left out. Cut-off read from the data, not from the text of the source: active = T/C of 150% or more; inactive = T/C below 125%.

Tested on: L1210 leukemia ip in BDF1 mice, survival T/C
Experiment: NCI In Vivo Anticancer Drug Screen. Data for tumor model L1210 Leukemia (intraperitoneal) in B6D2F1 (BDF1) mice
Conditions: endpoint: mean survival time, higher = longer survival
Outline: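 Tumor cells were implanted, animals were treated, and survival was followed. The result divides the treated measurement by the vehicle-control measurement.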

[1] = dose: 100.0 mg/kg/injection, schedule: Q01DX001 (ip), vehicle: Klucel (hydroxypropylcellulose) (HPC)
[2] = dose: 200.0 mg/kg/injection, schedule: Q01DX001 (ip), vehicle: Klucel (hydroxypropylcellulose) (HPC)
[3] = dose: 400.0 mg/kg/injection, schedule: Q01DX001 (ip), vehicle: Klucel (hydroxypropylcellulose) (HPC)
[4] = dose: 25.0 mg/kg/injection, schedule: Q04DX003 (ip), vehicle: saline
[5] = dose: 50.0 mg/kg/injection, schedule: Q04DX003 (ip), vehicle: saline
[6] = dose: 100.0 mg/kg/injection, schedule: Q04DX003 (ip), vehicle: saline
[7] = dose: 100.0 mg/kg/injection, schedule: Q04DX003 (ip), vehicle: saline with Tween-80
[8] = dose: 200.0 mg/kg/injection, schedule: Q04DX003 (ip), vehicle: saline with Tween-80
[9] = dose: 50.0 mg/kg/injection, schedule: Q01DX009 (ip), vehicle: saline with Tween-80
[10] = dose: 100.0 mg/kg/injection, schedule: Q01DX009 (ip), vehicle: saline with Tween-80
[11] = dose: 200.0 mg/kg/injection, schedule: Q01DX009 (ip), vehicle: saline with Tween-80
[12] = dose: 100.0 mg/kg/injection, schedule: Q01DX009 (ip), vehicle: Klucel (hydroxypropylcellulose) (HPC)
[13] = dose: 200.0 mg/kg/injection, schedule: Q01DX009 (ip), vehicle: Klucel (hydroxypropylcellulose) (HPC)
[14] = dose: 400.0 mg/kg/injection, schedule: Q01DX009 (ip), vehicle: Klucel (hydroxypropylcellulose) (HPC)
[15] = dose: 100.0 mg/kg/injection, schedule: Q01DX009 (ip), vehicle: saline
[16] = dose: 200.0 mg/kg/injection, schedule: Q01DX009 (ip), vehicle: saline
[17] = dose: 100.0 mg/kg/injection, schedule: Q04DX003 (ip), vehicle: Klucel (hydroxypropylcellulose) (HPC)
[18] = dose: 200.0 mg/kg/injection, schedule: Q04DX003 (ip), vehicle: Klucel (hydroxypropylcellulose) (HPC)
[19] = dose: 400.0 mg/kg/injection, schedule: Q04DX003 (ip), vehicle: Klucel (hydroxypropylcellulose) (HPC)
[20] = dose: 100.0 mg/kg/injection, schedule: Q01DX001 (ip), vehicle: saline
[21] = dose: 200.0 mg/kg/injection, schedule: Q01DX001 (ip), vehicle: saline
[22] = dose: 400.0 mg/kg/injection, schedule: Q01DX001 (ip), vehicle: saline
[23] = dose: 25.0 mg/kg/injection, schedule: Q01DX009 (ip), vehicle: Klucel (hydroxypropylcellulose) (HPC)
[24] = dose: 50.0 mg/kg/injection, schedule: Q01DX009 (ip), vehicle: Klucel (hydroxypropylcellulose) (HPC)
[25] = dose: 400.0 mg/kg/injection, schedule: Q04DX003 (ip), vehicle: saline with Tween-80
[26] = dose: 200.0 mg/kg/injection, schedule: Q04DX003 (ip), vehicle: saline

Measured: T/C

CC1(C)CC(=O)C=C(OS(=O)(=O)C(F)(F)F)C1
inactive: dose: 12.5 mg/kg/injection, schedule: Q01DX009 (ip), vehicle: DMSO 110 % of control | dose: 25.0 mg/kg/injection, schedule: Q01DX009 (ip), vehicle: DMSO 101 % of control | dose: 50.0 mg/kg/injection, schedule: Q01DX009 (ip), vehicle: DMSO 103 % of control | dose: 100.0 mg/kg/injection, schedule: Q01DX009 (ip), vehicle: DMSO 94 % of control

CC(=O)NC(CSCc1ccccc1)(SCc1ccccc1)C(=O)O (stereo not given)
inactive: [1] 92 % of control | [2] 90 % of control | [3] 92 % of control

O=C(COc1ccc(Cl)c(Cl)c1)NCc1ccc[n+](Cc2cccc(Cl)c2S(=O)(=O)F)c1
inactive: [4] 103 % of control | [5] 101 % of control | [6] 93 % of control and 100 % of control

Cc1cc(C)c(C)c(C(C)O)c1C (stereo not given)
inactive: [7] 96 % of control | [8] 94 % of control

CSCCC(C)C
inactive: [9] 112 % of control | [10] 106 % of control | [7] 95 % of control | [11] 95 % of control | [8] 103 % of control

Nc1cc(OCc2ccccc2)cc(OCc2ccccc2)c1
inactive: dose: 25.0 mg/kg/injection, schedule: Q01DX009 (ip), vehicle: water 89 % of control | dose: 50.0 mg/kg/injection, schedule: Q01DX009 (ip), vehicle: water 97 % of control | dose: 100.0 mg/kg/injection, schedule: Q01DX009 (ip), vehicle: water 93 % of control

CCOC1=C(C#N)CC2(CC1)c1ccccc1-c1ccccc12
inactive: [12] 96 % of control | [13] 95 % of control | [14] 95 % of control

O=C(O)CCCc1ccc(Cl)cc1
inactive: dose: 50.0 mg/kg/injection, schedule: Q01DX009 (ip), vehicle: saline 113 % of control | [15] 105 % of control | [16] 96 % of control

O=c1cc(-c2ccccc2)cc(-c2ccccc2)o1
inactive: [12] 102 % of control | [17] 96 % of control | [13] 96 % of control | [18] 100 % of control | [14] 96 % of control | [19] 94 % of control

C=CCSc1n[nH]c(=O)[nH]c1=O
inactive: [20] 111 % of control | [21] 92 % of control | [22] 103 % of control

O=[N+]([O-])CC1c2ccccc2Nc2ccccc21
inactive: [9] 93 % of control | [10] 107 % of control | [11] 100 % of control

C1=NCCc2cc3[nH]c4ccccc4c3cc21
inactive: [23] 100 % of control | [24] 100 % of control | dose: 50.0 mg/kg/injection, schedule: Q04DX003 (ip), vehicle: Klucel (hydroxypropylcellulose) (HPC) 98 % of control | [1] 95 % of control | [12] 102 % of control | [17] 97 % of control | [2] 91 % of control

O=C(Nc1ccccc1O)c1ccccc1
inactive: [17] 109 % of control | [18] 102 % of control | [19] 101 % of control

C#CCN1CCCC1
inactive: dose: 12.5 mg/kg/injection, schedule: Q04DX003 (ip), vehicle: saline 92 % of control | [4] 92 % of control | [5] 95 % of control

CC(C)(COCOCC(C)(C)[N+](=O)[O-])[N+](=O)[O-]
inactive: [7] 100 % of control | [8] 103 % of control | [25] 100 % of control

NC(=O)C1C(=O)OC2CCCCC21 (stereo not given)
inactive: [20] 92 % of control | [21] 87 % of control | [22] 97 % of control

CCC1(c2ccccc2)C(=O)NC(=S)N(C)C1=O (stereo not given)
inactive: dose: 75.0 mg/kg/injection, schedule: Q01DX001 (ip), vehicle: other 95 % of control | dose: 150.0 mg/kg/injection, schedule: Q01DX001 (ip), vehicle: other 96 % of control

N#Cc1nc2ccc(Cl)cc2nc1C#N
inactive: [23] 104 % of control | [24] 105 % of control | [12] 95 % of control and 102 % of control

NC(=O)c1c[n+]([O-])ccn1
inactive: [5] 108 % of control | [20] 96 % of control | [6] 101 % of control | [21] 98 % of control | [26] 113 % of control

COc1ccc(OC)c(NC(=O)CS)c1
inactive: [7] 97 % of control | [8] 91 % of control

O=c1c2ccccc2n2nnc3cccc1c32
inactive: [1] 97 % of control and 88 % of control | [17] 91 % of control | [2] 87 % of control | [18] 95 % of control | [3] 92 % of control

COc1cc(Nc2cc(N)nc(N)n2)cc(OC)c1OC
inactive: [7] 95 % of control | [8] 98 % of control | [25] 88 % of control

C/C(=N/Nc1ccc2c(O)cc(S(=O)(=O)O)cc2c1)c1ccc(Cl)cc1
inactive: dose: 75.0 mg/kg/injection, schedule: Q01DX009 (ip), vehicle: saline 101 % of control | dose: 150.0 mg/kg/injection, schedule: Q01DX009 (ip), vehicle: saline 98 % of control | dose: 300.0 mg/kg/injection, schedule: Q01DX009 (ip), vehicle: saline 96 % of control

CNCC(OC)c1ccc(O)c(O)c1 (stereo not given)
inactive: [15] 105 % of control | [6] 108 % of control | [16] 105 % of control | [26] 106 % of control | dose: 400.0 mg/kg/injection, schedule: Q04DX003 (ip), vehicle: saline 108 % of control

N#Cc1cscc1C#N
inactive: dose: 12.5 mg/kg/injection, schedule: Q01DX009 (ip), vehicle: Klucel (hydroxypropylcellulose) (HPC) 96 % of control | [23] 92 % of control | [24] 97 % of control | [12] 88 % of control | [17] 111 % of control | [18] 100 % of control | [19] 104 % of control

CCC[CH2][Hg][Cl]
inactive: dose: 6.25 mg/kg/injection, schedule: Q01DX009 (ip), vehicle: saline with Tween-80 94 % of control | dose: 6.25 mg/kg/injection, schedule: Q04DX003 (ip), vehicle: Klucel (hydroxypropylcellulose) (HPC) 93 % of control | dose: 12.5 mg/kg/injection, schedule: Q01DX009 (ip), vehicle: saline with Tween-80 92 % of control | dose: 12.5 mg/kg/injection, schedule: Q04DX003 (ip), vehicle: Klucel (hydroxypropylcellulose) (HPC) 92 % of control | dose: 25.0 mg/kg/injection, schedule: Q04DX003 (ip), vehicle: Klucel (hydroxypropylcellulose) (HPC) 88 % of control

CN(C)c1ccc(C(=O)c2ccc(N(C)C)c(N)c2)cc1N
inactive: dose: 100.0 mg/kg/injection, schedule: Q01DX001 (ip), vehicle: other 106 % of control | dose: 200.0 mg/kg/injection, schedule: Q01DX001 (ip), vehicle: other 92 % of control | dose: 400.0 mg/kg/injection, schedule: Q01DX001 (ip), vehicle: other 101 % of control
